Data published in PubChem BioAssay AID1259407 (Chemical Carcinogenesis Research Information System (CCRIS), 2018).
Activity calls are given as the source filed them. No rule for the calls is given here.

System: CCRIS mutagenicity, Ames/micronucleus/aberration tests
Assay: CCRIS mutagenicity studies
[1] = Test System: AMES SALMONELLA TYPHIMURIUM, Strain/Indicator: TA98, Metabolic Activation: NONE, Method: PREINCUBATION
[2] = Test System: AMES SALMONELLA TYPHIMURIUM, Strain/Indicator: TA98, Metabolic Activation: NONE, Method: STANDARD PLATE
[3] = Test System: AMES SALMONELLA TYPHIMURIUM, Strain/Indicator: TA100, Metabolic Activation: NONE, Method: PREINCUBATION
[4] = Test System: AMES SALMONELLA TYPHIMURIUM, Strain/Indicator: TA100, Metabolic Activation: NONE, Method: STANDARD PLATE
[5] = Test System: AMES SALMONELLA TYPHIMURIUM, Strain/Indicator: TA98, Metabolic Activation: HAMSTER, LIVER, S-9, AROCLOR 1254 (10%), Method: PREINCUBATION
[6] = Test System: AMES SALMONELLA TYPHIMURIUM, Strain/Indicator: TA98, Metabolic Activation: RAT, LIVER, S-9, AROCLOR 1254 (10%), Method: PREINCUBATION
[7] = Test System: AMES SALMONELLA TYPHIMURIUM, Strain/Indicator: TA100, Metabolic Activation: HAMSTER, LIVER, S-9, AROCLOR 1254 (10%), Method: PREINCUBATION
[8] = Test System: AMES SALMONELLA TYPHIMURIUM, Strain/Indicator: TA100, Metabolic Activation: RAT, LIVER, S-9, AROCLOR 1254 (10%), Method: PREINCUBATION
[9] = Test System: AMES SALMONELLA TYPHIMURIUM, Strain/Indicator: TA1535, Metabolic Activation: HAMSTER, LIVER, S-9, AROCLOR 1254 (10%), Method: PREINCUBATION
[10] = Test System: AMES SALMONELLA TYPHIMURIUM, Strain/Indicator: TA1535, Metabolic Activation: NONE, Method: PREINCUBATION
[11] = Test System: AMES SALMONELLA TYPHIMURIUM, Strain/Indicator: TA1535, Metabolic Activation: RAT, LIVER, S-9, AROCLOR 1254 (10%), Method: PREINCUBATION
[12] = Test System: AMES SALMONELLA TYPHIMURIUM, Strain/Indicator: TA1537, Metabolic Activation: HAMSTER, LIVER, S-9, AROCLOR 1254 (10%), Method: PREINCUBATION
[13] = Test System: AMES SALMONELLA TYPHIMURIUM, Strain/Indicator: TA1537, Metabolic Activation: NONE, Method: PREINCUBATION
[14] = Test System: AMES SALMONELLA TYPHIMURIUM, Strain/Indicator: TA1537, Metabolic Activation: RAT, LIVER, S-9, AROCLOR 1254 (10%), Method: PREINCUBATION

SMILES | mutagenic call [1] | mutagenic call [2] | mutagenic call [3] | mutagenic call [4] | mutagenic call [5] | mutagenic call [6] | mutagenic call [7] | mutagenic call [8] | mutagenic call [9] | mutagenic call [10] | mutagenic call [11] | mutagenic call [12] | mutagenic call [13] | mutagenic call [14] | also measured
O=[N+]([O-])c1cc(Cl)cc(Cl)c1O | inactive; negative | inactive; negative | inactive; negative | inactive; negative | – | – | – | – | – | – | – | – | – | – | mutagenic call (Test System: CHINESE HAMSTER V-79, Strain/Indicator: V-79/6-THIOGUANINE, Metabolic Activation: NONE): inactive; negative
O=[N+]([O-])C(Cl)Br (stereo unspecified) | – | – | – | – | – | – | – | – | – | – | – | – | – | – | mutagenic call (Test System: Ames Salmonella typhimurium, Strain/Indicator: RSJ100, Metabolic Activation: None, Method: Standard plate): active; positive (weak); mutagenic call (Test System: Ames Salmonella typhimurium, Strain/Indicator: RSJ100, Metabolic Activation: Rat, Liver, S-9, Aroclor, Method: Standard plate): inactive; negative; mutagenic call (Test System: Ames Salmonella typhimurium, Strain/Indicator: TA98, Metabolic Activation: None, Method: Standard plate): active; positive (weak); mutagenic call (Test System: Ames Salmonella typhimurium, Strain/Indicator: TA98, Metabolic Activation: Rat, Liver, S-9, Aroclor, Method: Standard plate): inactive; negative; mutagenic call (Test System: Ames Salmonella typhimurium, Strain/Indicator: TA100, Metabolic Activation: None, Method: Standard plate): inactive; negative; mutagenic call (Test System: Ames Salmonella typhimurium, Strain/Indicator: TA100, Metabolic Activation: Rat, Liver, S-9, Aroclor, Method: Standard plate): active; positive; mutagenic call (Test System: Ames Salmonella typhimurium, Strain/Indicator: TA104, Metabolic Activation: None, Method: Standard plate): inactive; negative; mutagenic call (Test System: Ames Salmonella typhimurium, Strain/Indicator: TA104, Metabolic Activation: Rat, Liver, S-9, Aroclor, Method: Standard plate): inactive; negative; mutagenic call (Test System: Ames Salmonella typhimurium, Strain/Indicator: TPT100, Metabolic Activation: None, Method: Standard plate): inactive; negative
CCCC(=O)c1cc(O)c(O)cc1O | inactive; negative | – | inactive; negative | – | active; positive | inactive; negative | inactive; negative | active; positive | inactive; negative | inactive; negative | inactive; negative | inactive; negative | inactive; negative | active; positive | –
Cl/C=C/Cl | inactive; negative | inactive; negative | inactive; negative | active; positive | inactive; negative | inactive; negative | inactive; negative | inactive; negative | inactive; negative | inactive; negative | inactive; negative | inactive; negative | inactive; negative | inactive; negative | mutagenic call (End Point: IN VITRO CHROMOSOMAL ABERRATIONS, Test System: CHINESE HAMSTER LUNG (CHL), Metabolic Activation: NONE): inactive; negative; mutagenic call (End Point: IN VITRO CHROMOSOMAL ABERRATIONS, Test System: CHINESE HAMSTER LUNG (CHL), Metabolic Activation: RAT, LIVER, S-9, KC-400): inactive; negative; mutagenic call (Test System: AMES SALMONELLA TYPHIMURIUM, Strain/Indicator: TA97, Metabolic Activation: NONE, Method: STANDARD PLATE): inactive; negative; mutagenic call (Test System: AMES SALMONELLA TYPHIMURIUM, Strain/Indicator: TA97, Metabolic Activation: RAT, LIVER, S-9, AROCLOR 1254, Method: STANDARD PLATE): active; positive; mutagenic call (Test System: AMES SALMONELLA TYPHIMURIUM, Strain/Indicator: TA98, Metabolic Activation: HAMSTER LIVER S-9, AROCLOR 1254 (10%), Method: PREINCUBATION): inactive; negative; mutagenic call (Test System: AMES SALMONELLA TYPHIMURIUM, Strain/Indicator: TA98, Metabolic Activation: RAT LIVER S-9, AROCLOR 1254 (10%), Method: PREINCUBATION): inactive; negative; mutagenic call (Test System: AMES SALMONELLA TYPHIMURIUM, Strain/Indicator: TA98, Metabolic Activation: RAT, LIVER, S-9, AROCLOR 1254, Method: STANDARD PLATE): active; positive; mutagenic call (Test System: AMES SALMONELLA TYPHIMURIUM, Strain/Indicator: TA100, Metabolic Activation: HAMSTER LIVER S-9, AROCLOR 1254 (10%), Method: PREINCUBATION): inactive; negative; mutagenic call (Test System: AMES SALMONELLA TYPHIMURIUM, Strain/Indicator: TA100, Metabolic Activation: RAT LIVER S-9, AROCLOR 1254 (10%), Method: PREINCUBATION): inactive; negative; mutagenic call (Test System: AMES SALMONELLA TYPHIMURIUM, Strain/Indicator: TA100, Metabolic Activation: RAT, LIVER, S-9, AROCLOR 1254, Method: STANDARD PLATE): active; positive; mutagenic call (Test System: AMES SALMONELLA TYPHIMURIUM, Strain/Indicator: TA104, Metabolic Activation: NONE, Method: STANDARD PLATE): inactive; negative; mutagenic call (Test System: AMES SALMONELLA TYPHIMURIUM, Strain/Indicator: TA104, Metabolic Activation: RAT, LIVER, S-9, AROCLOR 1254, Method: STANDARD PLATE): inactive; negative; mutagenic call (Test System: AMES SALMONELLA TYPHIMURIUM, Strain/Indicator: TA1535, Metabolic Activation: HAMSTER LIVER S-9, AROCLOR 1254 (10%), Method: PREINCUBATION): inactive; negative; mutagenic call (Test System: AMES SALMONELLA TYPHIMURIUM, Strain/Indicator: TA1535, Metabolic Activation: RAT LIVER S-9, AROCLOR 1254 (10%), Method: PREINCUBATION): inactive; negative; mutagenic call (Test System: AMES SALMONELLA TYPHIMURIUM, Strain/Indicator: TA1537, Metabolic Activation: HAMSTER LIVER S-9, AROCLOR 1254 (10%), Method: PREINCUBATION): inactive; negative; mutagenic call (Test System: AMES SALMONELLA TYPHIMURIUM, Strain/Indicator: TA1537, Metabolic Activation: RAT LIVER S-9, AROCLOR 1254 (10%), Method: PREINCUBATION): inactive; negative
